Assay results reported in patent publication US20020077328A1, “Selective cyclooxygenase-2 inhibitors and vasomodulator compounds for generalized pain and headache pain” (priority 2000, published 2002).

Test: Solubility of celecoxib and valdecoxib in various solvent liquids
Type: physicochemical
Description: Aliquots of a solvent liquid were then added dropwise in approximately 100 mg increments to the solid sample. The resulting mixture was vortexed and/or sonicated between aliquot additions. […] Solubility values preceded by the < symbol denote that, at the particular concentration shown, the mixture was still cloudy, i.e., not all of the drug was fully in dissolved form.

[1] = Labrasol ™ /DGME/propylene glycol laurate 40:40:20 w/w
[2] = Polyethylene glycol 400/water 1:1 w/w
[3] = Polyethylene glycol 400/water 2:1 w/w
[4] = Propylene glycol laurate/Labrasol ™ 1:1 w/w
[5] = Tagat ™ TO/Capmul ™ MCM 1:1 w/w

| Solubility (Capmul ™ MCM) | Solubility (DGME/water 1:1 w/w) [mg/g] | Solubility (DGME/water 2:1 w/w) [mg/g] | Solubility (Labrasol ™) [mg/g] | Solubility [1] | Solubility (Polyethylene glycol 400) | Solubility [2] [mg/g] | Solubility [3] [mg/g] | Solubility (Propylene glycol) | Solubility (Propylene glycol laurate) [mg/g] | Solubility [4] [mg/g] | Solubility (Tagat ™ TO) | Solubility [5] | Compound | further results |
| --- | --- | --- | --- | --- | --- | --- | --- | --- | --- | --- | --- | --- | --- | --- |
| 19 − 21 mg/g | 3 | 42 | 64 | 288 − 297 mg/g | 304 mg/g | <1 | 6 | 23 − 41 mg/g | 18 | 58 | 24 − 40 mg/g | 34 − 52 mg/g | Cc1ccc(-c2cc(C(F)(F)F)nn2-c2ccc(S(N)(=O)=O)cc2)cc1 [celecoxib] | Solubility (Arlacel ™ 186): 13 mg/g; Solubility (Cremophor ™ EL): 36 mg/g; Solubility (Ethyl caprylate): 25 mg/g; Solubility (Labrasol ™ /DGME 1:1 w/w): 335 mg/g; Solubility (Labrasol ™ /DGME/propylene glycol laurate 35:35:30 w/w): 266 mg/g; Solubility (Labrasol ™ /DGME/propylene glycol laurate 45:45:10 w/w): 313 − 325 mg/g; Solubility (Miglyol ™ 812): 6 − 12 mg/g; Solubility (Polysorbate 80): 73 mg/g; Solubility (Tagat ™ /Capmul ™ MCM/DGME 35:35:30 w/w): 212 mg/g; Solubility (Tagat ™ /Capmul ™ MCM/DGME 58:12:30 w/w): 274 mg/g; Solubility (Tetraethylene glycol dimethyl ether): 188 mg/g; Solubility (Triethylene glycol monoethyl ether): 170 mg/g |
| 13 mg/g | 6 | 32 | 34 | 130 mg/g | 50 − 85 mg/g | 1 | 13 | 10 − 20 mg/g | 22 | 42 | 23 mg/g | 24 mg/g | Cc1onc(-c2ccccc2)c1-c1ccc(S(N)(=O)=O)cc1 [valdecoxib] | Advantage in solubility for DGME over propylene glycol: approximately tenfold; Solubility (Diethylene glycol monoethyl ether (DGME)): 120 mg/g |
